In the supplement of paper PMC10307832:

Tests used:
Test in all cases: relative viability (nuclei count vs DMSO), 5 days (fraction); higher = more cells survive
NCI-H2126 = tested on: NCI-H2126
How it was run: (§1)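 Relative viability was taken as the ratio of nuclei in treated wells to nuclei in vehicle wells. Lung cancer cell lines in 1536-well plates received compounds by pin tool one day after seeding, either one drug alone or a fixed anchor-drug dose plus five library-drug doses (not always all listed) in √10 steps. Nuclei were counted on 4× images after 5 days of treatment, and values are medians of duplicate plates.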

NCI-H1666 = tested on: NCI-H1666
How it was run: as §1

NCI-H322M = tested on: NCI-H322M
How it was run: as §1

NCI-H2085 = tested on: NCI-H2085
How it was run: as §1

UMC-11 = tested on: UMC-11
How it was run: as §1

EMC-BAC-2 = tested on: EMC-BAC-2
How it was run: as §1

HCC-78 = tested on: HCC-78
How it was run: as §1

NCI-H1755 = tested on: NCI-H1755
How it was run: as §1

NCI-H2023 = tested on: NCI-H2023
How it was run: as §1

NCI-H1975 = tested on: NCI-H1975
How it was run: as §1

EPLC-272H = tested on: EPLC-272H
How it was run: as §1

LXF-289 = tested on: LXF-289
How it was run: as §1

NCI-H3122 = tested on: NCI-H3122
How it was run: as §1

ChaGo-K-1 = tested on: ChaGo-K-1
How it was run: as §1

NCI-H358 = tested on: NCI-H358
How it was run: as §1

NCI-H1993 = tested on: NCI-H1993
How it was run: as §1

CAL-12T = tested on: CAL-12T
How it was run: as §1

ABC-1 = tested on: ABC-1
How it was run: as §1

NCI-H1915 = tested on: NCI-H1915
How it was run: as §1

HOP-62 = tested on: HOP-62
How it was run: as §1

COR-L 105 = tested on: COR-L 105
How it was run: as §1

NCI-H441 = tested on: NCI-H441
How it was run: as §1

HCC-15 = tested on: HCC-15
How it was run: as §1

## COc1cc(N2CCC(C(N)=O)CC2)ccc1Nc1nc(N)c(Cl)c(Nc2ccccc2S(=O)(=O)C(C)C)n1 [HG-5-88-01] + C[C@@H](Oc1cc(-c2cnn(C3CCNCC3)c2)cnc1N)c1c(Cl)ccc(F)c1Cl [Crizotinib] (partner 1 µM)
NCI-H2126; first compound 0.04 µM
  relative viability: 1.02
NCI-H2126; first compound 0.1265 µM
  relative viability: 1.09
NCI-H2126; first compound 0.4 µM
  relative viability: 0.976
NCI-H2126; first compound 1.265 µM
  relative viability: 0.968
NCI-H2126; first compound 4 µM
  relative viability: 1.01
NCI-H1666; first compound 0.04 µM
  relative viability: 1.01
NCI-H1666; first compound 0.1265 µM
  relative viability: 1.1
NCI-H1666; first compound 0.4 µM
  relative viability: 0.941
NCI-H1666; first compound 1.265 µM
  relative viability: 0.794
NCI-H1666; first compound 4 µM
  relative viability: 0.594
NCI-H322M; first compound 0.04 µM
  relative viability: 0.978
NCI-H322M; first compound 0.1265 µM
  relative viability: 0.855
NCI-H322M; first compound 0.4 µM
  relative viability: 0.882
NCI-H322M; first compound 1.265 µM
  relative viability: 0.687
NCI-H322M; first compound 4 µM
  relative viability: 0.818
NCI-H2085; first compound 0.04 µM
  relative viability: 0.734
NCI-H2085; first compound 0.1265 µM
  relative viability: 0.856
NCI-H2085; first compound 0.4 µM
  relative viability: 0.873
NCI-H2085; first compound 1.265 µM
  relative viability: 0.694
NCI-H2085; first compound 4 µM
  relative viability: 0.63
UMC-11; first compound 0.04 µM
  relative viability: 0.652
UMC-11; first compound 0.1265 µM
  relative viability: 0.581
UMC-11; first compound 0.4 µM
  relative viability: 0.621
UMC-11; first compound 1.265 µM
  relative viability: 0.445
UMC-11; first compound 4 µM
  relative viability: 0.171
EMC-BAC-2; first compound 0.04 µM
  relative viability: 0.776
EMC-BAC-2; first compound 0.1265 µM
  relative viability: 0.748
EMC-BAC-2; first compound 0.4 µM
  relative viability: 0.769
EMC-BAC-2; first compound 1.265 µM
  relative viability: 0.77
EMC-BAC-2; first compound 4 µM
  relative viability: 0.667
HCC-78; first compound 0.04 µM
  relative viability: 0.37
HCC-78; first compound 0.1265 µM
  relative viability: 0.319
HCC-78; first compound 0.4 µM
  relative viability: 0.31
HCC-78; first compound 1.265 µM
  relative viability: 0.185
HCC-78; first compound 4 µM
  relative viability: 0.275
NCI-H1755; first compound 0.1265 µM
  relative viability: 0.86
NCI-H1755; first compound 0.4 µM
  relative viability: 0.854
NCI-H1755; first compound 1.265 µM
  relative viability: 0.768
NCI-H1755; first compound 4 µM
  relative viability: 0.933
NCI-H2023; first compound 0.04 µM
  relative viability: 0.729
NCI-H2023; first compound 0.1265 µM
  relative viability: 0.763
NCI-H2023; first compound 0.4 µM
  relative viability: 0.543
NCI-H2023; first compound 1.265 µM
  relative viability: 0.405
NCI-H2023; first compound 4 µM
  relative viability: 0.118
NCI-H1975; first compound 0.04 µM
  relative viability: 1.03
NCI-H1975; first compound 0.1265 µM
  relative viability: 1.03
NCI-H1975; first compound 0.4 µM
  relative viability: 0.821
NCI-H1975; first compound 1.265 µM
  relative viability: 0.794
NCI-H1975; first compound 4 µM
  relative viability: 0.334
EPLC-272H; first compound 0.04 µM
  relative viability: 0.972
EPLC-272H; first compound 0.1265 µM
  relative viability: 0.909
EPLC-272H; first compound 0.4 µM
  relative viability: 0.964
EPLC-272H; first compound 1.265 µM
  relative viability: 0.704
EPLC-272H; first compound 4 µM
  relative viability: 0.0745
LXF-289; first compound 0.04 µM
  relative viability: 0.804
LXF-289; first compound 0.1265 µM
  relative viability: 0.797
LXF-289; first compound 0.4 µM
  relative viability: 0.851
LXF-289; first compound 1.265 µM
  relative viability: 0.831
LXF-289; first compound 4 µM
  relative viability: 0.827
NCI-H3122; first compound 0.04 µM
  relative viability: 0.271
NCI-H3122; first compound 0.1265 µM
  relative viability: 0.264
NCI-H3122; first compound 0.4 µM
  relative viability: 0.292
NCI-H3122; first compound 1.265 µM
  relative viability: 0.233
NCI-H3122; first compound 4 µM
  relative viability: 0.173
ChaGo-K-1; first compound 0.04 µM
  relative viability: 1.12
ChaGo-K-1; first compound 0.1265 µM
  relative viability: 1.14
ChaGo-K-1; first compound 0.4 µM
  relative viability: 1.03
ChaGo-K-1; first compound 1.265 µM
  relative viability: 0.888
ChaGo-K-1; first compound 4 µM
  relative viability: 0.787
NCI-H358; first compound 0.04 µM
  relative viability: 0.526
NCI-H358; first compound 0.1265 µM
  relative viability: 0.461
NCI-H358; first compound 0.4 µM
  relative viability: 0.529
NCI-H358; first compound 1.265 µM
  relative viability: 0.318
NCI-H358; first compound 4 µM
  relative viability: 0.235
NCI-H1993; first compound 0.04 µM
  relative viability: 0.988
NCI-H1993; first compound 0.1265 µM
  relative viability: 0.773
NCI-H1993; first compound 0.4 µM
  relative viability: 0.892
NCI-H1993; first compound 1.265 µM
  relative viability: 0.615
NCI-H1993; first compound 4 µM
  relative viability: 0.753
CAL-12T; first compound 0.04 µM
  relative viability: 0.589
CAL-12T; first compound 0.1265 µM
  relative viability: 0.671
CAL-12T; first compound 0.4 µM
  relative viability: 0.421
CAL-12T; first compound 1.265 µM
  relative viability: 0.432
CAL-12T; first compound 4 µM
  relative viability: 0.183
ABC-1; first compound 0.04 µM
  relative viability: 1.15
ABC-1; first compound 0.1265 µM
  relative viability: 0.939
ABC-1; first compound 0.4 µM
  relative viability: 0.813
ABC-1; first compound 1.265 µM
  relative viability: 0.606
ABC-1; first compound 4 µM
  relative viability: 0.43
NCI-H1915; first compound 0.04 µM
  relative viability: 0.926
NCI-H1915; first compound 0.1265 µM
  relative viability: 0.885
NCI-H1915; first compound 0.4 µM
  relative viability: 0.906
NCI-H1915; first compound 1.265 µM
  relative viability: 0.928
NCI-H1915; first compound 4 µM
  relative viability: 0.808
HOP-62; first compound 0.04 µM
  relative viability: 0.894
HOP-62; first compound 0.1265 µM
  relative viability: 1.12
HOP-62; first compound 0.4 µM
  relative viability: 0.83
HOP-62; first compound 1.265 µM
  relative viability: 0.925
HOP-62; first compound 4 µM
  relative viability: 0.96
COR-L 105; first compound 0.04 µM
  relative viability: 0.855
COR-L 105; first compound 0.1265 µM
  relative viability: 0.728
COR-L 105; first compound 0.4 µM
  relative viability: 0.519
COR-L 105; first compound 1.265 µM
  relative viability: 0.346
COR-L 105; first compound 4 µM
  relative viability: 0.366
NCI-H441; first compound 0.04 µM
  relative viability: 0.655
NCI-H441; first compound 0.1265 µM
  relative viability: 0.764
NCI-H441; first compound 0.4 µM
  relative viability: 0.554
NCI-H441; first compound 1.265 µM
  relative viability: 0.648
NCI-H441; first compound 4 µM
  relative viability: 0.431
HCC-15; first compound 0.04 µM
  relative viability: 0.898
HCC-15; first compound 0.1265 µM
  relative viability: 0.775
HCC-15; first compound 0.4 µM
  relative viability: 0.779
HCC-15; first compound 1.265 µM
  relative viability: 0.801
HCC-15; first compound 4 µM
  relative viability: 0.77
